According to patent US6737383B1, “Herbicidal oxadiazolidines” (priority 1999, dated 2004):

Assays:
[1] = tested on: bedstraw; assay: Test B pre/postemergence bedstraw; type: in vivo, Galium aparine; settings: Postemergence
In short: (§1)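 Herbicidal effect was estimated by eye on a ten-point control scale after plants spent twelve to sixteen days in a greenhouse following soil or foliar treatment. Foliar sprays targeted plants at one to four leaves; all doses were formulated in a non-phytotoxic solvent with surfactant.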

[2] = tested on: blackgrass; assay: Test B pre/postemergence blackgrass; type: in vivo, Alopecurus myosuroides
In short: as §1

[3] = tested on: surinam grass; assay: Test B pre/postemergence surinam grass; type: in vivo, Brachiaria decumbens
In short: as §1

[4] = tested on: cocklebur; assay: Test B pre/postemergence cocklebur; type: in vivo, Xanthium strumarium
In short: as §1

[5] = tested on: corn; assay: Test B pre/postemergence corn; type: in vivo, Zea mays
In short: as §1

[6] = tested on: crabgrass; assay: Test B pre/postemergence crabgrass; type: in vivo, Digitaria sanguinalis
In short: as §1

[7] = tested on: giant foxtail; assay: Test B pre/postemergence giant foxtail; type: in vivo, Setaria faberii
In short: as §1

[8] = tested on: morningglory; assay: Test B pre/postemergence morningglory; type: in vivo, Ipomoea hederacea
In short: as §1

[9] = tested on: pigweed; assay: Test B pre/postemergence pigweed; type: in vivo, Amaranthus retroflexus
In short: as §1

[10] = tested on: rape; assay: Test B pre/postemergence rape; type: in vivo, Brassica napus
In short: as §1

[11] = tested on: soybean; assay: Test B pre/postemergence soybean; type: in vivo, Glycine max
In short: as §1

[12] = tested on: sugar beet; assay: Test B pre/postemergence sugar beet; type: in vivo, Beta vulgaris
In short: as §1

[13] = tested on: velvetleaf; assay: Test B pre/postemergence velvetleaf; type: in vivo, Abutilon theophrasti
In short: as §1

[14] = tested on: wheat; assay: Test B pre/postemergence wheat; type: in vivo, Triticum aestivum
In short: as §1

[15] = tested on: wild oat; assay: Test B pre/postemergence wild oat; type: in vivo, Avena fatua
In short: as §1

[16] = tested on: purple nutsedge; assay: Test B pre/postemergence purple nutsedge; type: in vivo, Cyperus rotundus
In short: as §1

[17] = tested on: rice; assay: Test B flood test rice; type: in vivo, Oryza sativa
In short: (§2)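 Plants were grown to the 2-leaf stage before treatment with test chemical, then held in a greenhouse for twelve to sixteen days. Injury was visually rated against untreated controls on a 0–10 scale, where 0 is no effect and 10 is complete control.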

[18] = tested on: smallflower flatsedge; assay: Test B flood test smallflower flatsedge; type: in vivo, Cyperus difformis
In short: as §2

[19] = tested on: duck salad; assay: Test B flood test duck salad; type: in vivo, Heteranthera limosa
In short: as §2

[20] = tested on: bamyardgrass; assay: Test B flood test barnyardgrass; type: in vivo, Echinochloa crus-galli
In short: as §2

[21] = Postemergence, Rate 62 g/ha, scale 0 to 10, 0 is no effect, 10 is complete control
[22] = Postemergence, Rate 125 g/ha, scale of 0 to 10 where 0 is no effect and 10 is complete control
[23] = Postemergence, Rate 250 g/ha, scale of 0 to 10, 0 is no effect, 10 is complete control
[24] = Postemergence, Rate 500 g/ha, scale of 0 to 10 where 0 is no effect and 10 is complete control
[25] = Preemergence, Rate 62 g/ha, scale 0 to 10 (0 no effect, 10 complete control)
[26] = Preemergence, Rate 125 g/ha, scale of 0 to 10 where 0 is no effect and 10 is complete control
[27] = Preemergence, Rate 500 g/ha, scale of 0 to 10 where 0 is no effect and 10 is complete control
[28] = Rate 62 g/ha, flood test species, Pre-emergence, visual evaluation after twelve to sixteen days
[29] = Rate 125 g/ha, under heading Pre-emergence, flood test species, visual evaluation after twelve to sixteen days
[30] = Rate 250 g/ha, Pre-emergence (flood test species), scale 0 to 10, 0 is no effect, 10 is complete control
[31] = Rate 500 g/ha, Pre-emergence section of Table B, 0 to 10 scale (0 no effect, 10 complete control)

C=C(Cn1c(=O)on(C(=O)N(c2ccccc2)C(C)C)c1=O)c1ccc(F)cc1 [Compound 606]
0: Plant response rating, Bedstraw ([1]; Rate 62 g/ha, scale 0 to 10, 0 is no effect, 10 is complete control) | Bedstraw plant response rating ([1]; Rate 250 g/ha, scale of 0 to 10, 0 is no effect, 10 is complete control) | Plant response rating, Bedstraw ([1]; Rate 500 g/ha, scale of 0 to 10 where 0 is no effect and 10 is complete control) | Plant response rating, Blackgrass [2, 21] | Plant response rating, Blackgrass [2, 22] | Blackgrass plant response rating [2, 23] | Blackgrass plant response rating [2, 25] | Blackgrass plant response rating [2, 26] | Blackgrass plant response rating (0 to 10 scale) ([2]; Preemergence, Rate 250 g/ha) | Plant response rating, B. signalgrass [3, 21] | Plant response rating, B. signalgrass [3, 22] | B. signalgrass plant response rating [3, 23] | Plant response rating, B. signalgrass [3, 24] | B. signalgrass plant response rating [3, 25] | B. signalgrass plant response rating [3, 26] | B. signalgrass plant response rating (0 to 10 scale, 0 is no effect, 10 is complete control) ([3]; Preemergence, Rate 250 g/ha) | B. signalgrass plant response rating [3, 27] | Plant response rating, Cocklebur [4, 21] | Plant response rating, Cocklebur [4, 22] | Cocklebur plant response rating [4, 23] | Plant response rating, Cocklebur [4, 24] | Cocklebur plant response rating [4, 25] | Cocklebur plant response rating [4, 26] | Cocklebur plant response rating (0 to 10 scale) ([4]; Preemergence, Rate 250 g/ha) | Plant response rating, Cocklebur [4, 27] | Plant response rating, Corn [5, 21] | Plant response rating, Corn [5, 22] | Corn plant response rating [5, 23] | Plant response rating, Corn [5, 24] | Corn plant response rating [5, 25] | Corn plant response rating [5, 26] | Corn plant response rating (0 to 10 scale) ([5]; Preemergence, Rate 250 g/ha) | Plant response rating, Corn [5, 27] | Plant response rating, Crabgrass [6, 21] | Crabgrass plant response rating [6, 25] | Plant response rating, Giant foxtail [7, 21] | Plant response rating, Giant foxtail [7, 22] | Giant foxtail plant response rating [7, 23] | Giant foxtail plant response rating [7, 25] | Morningglory plant response rating [8, 25] | Morningglory plant response rating [8, 26] | Plant response rating, Morningglory [8, 27] | Plant response rating, Redroot pigweed [9, 21] | Plant response rating, Redroot pigweed [9, 22] | Redroot pigweed plant response rating [9, 25] | Redroot pigweed plant response rating [9, 26] | Plant response rating, Redroot pigweed [9, 27] | Rape plant response rating [10, 25] | Rape plant response rating [10, 26] | Plant response rating, Rape [10, 27] | Soybean plant response rating [11, 25] | Soybean plant response rating [11, 26] | Plant response rating, Soybean [11, 27] | Plant response rating, Sugarbeets [12, 21] | Plant response rating, Sugarbeets [12, 22] | Sugarbeets plant response rating [12, 23] | Plant response rating, Sugarbeets [12, 24] | Sugarbeets plant response rating [12, 25] | Sugarbeets plant response rating [12, 26] | Plant response rating, Sugarbeets [12, 27] | Plant response rating, Velvetleaf [13, 21] | Plant response rating, Velvetleaf [13, 22] | Velvetleaf plant response rating [13, 23] | Velvetleaf plant response rating [13, 25] | Velvetleaf plant response rating [13, 26] | Plant response rating, Velvetleaf [13, 27] | Plant response rating, Wheat [14, 21] | Plant response rating, Wheat [14, 22] | Wheat plant response rating [14, 23] | Plant response rating, Wheat [14, 24] | Wheat plant response rating [14, 25] | Wheat plant response rating [14, 26] | Plant response rating, Wheat [14, 27] | Plant response rating, Wild oats [15, 21] | Plant response rating, Wild oats [15, 22] | Wild oats plant response rating [15, 23] | Plant response rating, Wild oats [15, 24] | Wild oats plant response rating [15, 25] | Wild oats plant response rating [15, 26] | Plant response rating, Nutsedge [16, 21] | Plant response rating, Nutsedge [16, 22] | Plant response rating, Nutsedge [16, 24] | Nutsedge plant response rating [16, 25] | Nutsedge plant response rating [16, 26] | Plant response rating, Nutsedge [16, 27] | Plant response rating, Rice (0 to 10 scale, 0 is no effect, 10 is complete control) [17, 28] | Rice plant response rating (0 to 10 scale, 0 is no effect, 10 is complete control) [17, 29] | Rice plant response rating [17, 30] | Rice plant response rating [17, 31] | Plant response rating, S. Flatsedge (0 to 10 scale, 0 is no effect, 10 is complete control) [18, 28] | S. Flatsedge plant response rating (0 to 10 scale, 0 is no effect, 10 is complete control) [18, 29] | S. Flatsedge plant response rating [18, 30] | S. Flatsedge plant response rating [18, 31] | Plant response rating, Ducksalad (0 to 10 scale, 0 is no effect, 10 is complete control) [19, 28] | Ducksalad plant response rating (0 to 10 scale, 0 is no effect, 10 is complete control) [19, 29] | Ducksalad plant response rating [19, 30] | Ducksalad plant response rating [19, 31] | Plant response rating, Barnyardgrass (0 to 10 scale, 0 is no effect, 10 is complete control) [20, 28] | Barnyardgrass plant response rating (0 to 10 scale, 0 is no effect, 10 is complete control) [20, 29] | Barnyardgrass plant response rating [20, 30] | Barnyardgrass plant response rating [20, 31]
9: Plant response rating, Giant foxtail [7, 27]
1: Plant response rating, Blackgrass [2, 24] | Redroot pigweed plant response rating [9, 23] | Plant response rating, Soybean [11, 21]
6: Giant foxtail plant response rating [7, 26] | Plant response rating, Morningglory [8, 21]
2: Plant response rating, Redroot pigweed [9, 24] | Plant response rating, Rape [10, 22] | Plant response rating, Soybean [11, 22] | Soybean plant response rating [11, 23]
3: Blackgrass plant response rating [2, 27] | Plant response rating, Crabgrass [6, 22] | Crabgrass plant response rating [6, 23] | Plant response rating, Giant foxtail [7, 24] | Rape plant response rating [10, 23] | Plant response rating, Velvetleaf [13, 24] | Plant response rating, Wild oats [15, 27]
10: Plant response rating, Morningglory [8, 22] | Morningglory plant response rating [8, 23]
4: Plant response rating, Rape [10, 24]
8: Plant response rating, Crabgrass [6, 27]
